Data: US7812165B2, “6-substituted pyridoindolone derivatives, production and therapeutic use thereof” (sanofi-aventis, priority 2004, dated 2010)

melting point: 295 °C
SMILES: CCON=Cc1ccc2[nH]c3c(cc(-c4ccc(OC)cc4OC)c(=O)n3C)c2c1 [Compound 7, 3-(2,4-Dimethoxyphenyl)-1-methyl-2-oxo-2,9-dihydro-1H-pyrido[2,3-b]indole-6-carbaldehyde O-ethyloxime]
